We go through 2 compounds from patent US7732485B2, “Treatment of cancer” (The University of Manchester, priority 2003, dated 2010).

One test deals with L1210/M1140 cell line. Put plainly: Growth inhibition assay (modified MTT). It counts as cell-based, murine. Particulars: Table 1, first series of assays, five-day MTT. The method, then:
(§1) The sensitivities of the cell lines to cisplatinum, carboplatinum, and compounds A-F were determined using a growth inhibition assay which was a modified version of the MTT method (modified version of MTT method described in Appendix B).
(§2) The following is a brief description of the eleven different cell lines used in the growth inhibition assay: • The A2780 cell line (1 in FIGS. 1-9) is a human ovarian cell line which is sensitive to cisplatinum and carboplatinum. […] The cor123/cpr (7) cell line is a modified version of the cor123 cell line which has been modified to be resistant to cisplatinum and carboplatinum. • The ccu24 (8) cell line is an epithelial ovarian cancer cell line, developed at the Christie Hospital from a tumour biopsy, and the ccu24/cpr (9) cell line is a modified version of this cell line which is cisplatinum and carboplatinum resistant. • L1210 (10) is a murine leukemia cell line and L1210/M1140 (11) is its platinum drug resistant subline.
(§3) The cell toxicity studies were performed using a modification of the method MTT.^7 The principle of the assay is to assess the growth inhibitory effect of a drug at various doses over a five-day time course. This assay was performed in 96-well microtitre plates. Cells were seeded at densities of 400-1,000 cells per well, depending on the doubling time of the cell line. All cell dilutions were performed in growth medium containing 10% FCS (foetal calf serum).
(§4) Compounds under investigation were dissolved in DMSO (dimethylsulphoxide). Serial dilutions of compound were made into the cell suspension, ensuring that the proportion of DMSO remained below 0.5%. 200 μl of cells and drug mix was added to the 96-well plates in triplicate. The plates were incubated for five days at 5% CO2 and 37° C. After this time, the plates were removed from the incubator and 50 μl of a 3 mg/ml solution of MTT [3-(4,5-dimethyl-thiazol-2-yl)-2,5-diphenyl tetrazolium bromide] was added to each well and incubated in the same conditions for another 3 hours. The medium from each well was aspirated and the formazan crystals were solubilised in 200 μl of DMSO. The plates were read using a Multiskan platereader at 540 nm and 690 nm. Growth inhibition curves were constructed using mean and standard deviation of the triplicate absorbance values and from these curves the IC50 values were calculated.

For the next test, the system named is L1210 cell line. Put plainly: Growth inhibition assay (modified MTT). It counts as cell-based, murine. Particulars: Table 1, first series of assays, five-day MTT. The method, then: as §1, §2, §3, §4
Another test concerns L1210. The experiment in a line: Comet assay, DNA crosslinking. It counts as cell-based, murine. The following applies: ratio >1 = more cross-linking in parental than in platinum-resistant line. The method, then:
(§5) Preliminary studies have been carried out to investigate the mechanism underlying this increased sensitivity. These studies were carried out using the Comet assay (described in Appendix C), which measures damage to DNA. The results are shown in FIGS. 1 (cisplatinum), 2 (carboplatinum), 3 to 8 (compounds A-F) and 9 (phenylgoldtriphenylphospine, PAuP).
(§6) Table 3 illustrates the results of the following calculation using the DNA cross-linking results obtained in the Comet assays:
(§7) DNA damage was measured by the single cell gel electrophoresis (SCGE) assay or “Comet assay”, originally developed by Ostling and Johnson^8. This is a method for determining the extent of DNA damage and repair capacity within individual cells.^9-11 It has previously been shown that this technique can be used to investigate the mechanism of action of different DNA damaging agents.^12
(§8) Cells were trypsinised, suspended in 0.5 ml of ice cold fresh medium and transferred into plastic 24-well dishes prior to embedding in agarose. For the cross-linking studies treated and control samples were chilled on ice (to prevent any repair of DNA damage) and irradiated to a dose of 20 Gy in a Caesium-137 source (0.4 Gy/min). Control, (unirradiated, non-drug treated cells) were maintained on ice in the same manner as treated samples.
(§9) Glass microscope slides, frosted at one end, were pre-coated with 1% normal agarose in distilled water. These slides were allowed to air dry overnight prior to use. A 1% low melting point agarose (LMP) mixture in PBS was melted and held at 45° C. 1 ml of LMP was then added to 0.5 ml of cell suspension on ice and the resultant mixture was pipetted onto a pre-coated glass microscope slide and allowed to set for 1-2 minutes before being transferred to an ice tray. The slides were immersed in ice cold lysis solution (100 mM EDTA, 10 mM Tris-HCl, 1% Triton ×100, 1% DMSO, 2.5M NaCl) for 1 hr, and washed three times by immersion in fresh double distilled water for 15 minutes.
(§10) Slides were then placed onto a flat bed electrophoresis tank and covered (5-6 mm) with alkali unwinding solution (50 mM NaOH, 1 mM EDTA buffered to pH 12.5) and left under subdued lighting for 45 minutes to allow the DNA to unwind before being subjected to electrophoresis at 0.6V/cm for 25 minutes. Each slide was rinsed with 2×1 ml of 0.4M Tris-HCl, pH 8.0 and allowed to dry in air. The dried slides were then rehydrated for 20 minutes with double distilled water, 2×1 ml of propidium iodide solution (2.5 μg/ml) was added and staining was allowed to proceed for 15 minutes. Slides were then immersed in 1 litre of double distilled water for 1 hour to reduce excess background staining. The slides were cover slipped and then examined at 250× magnification under an epifluorescent microscope (Zeiss-Jenamed) using green light from a 50 watt mercury source with a 580 nm reflector and a 590 nm barrier filter set. Images were captured using an attached Sony HAD-1 interline CCD camera and Komet software analysis package (Kinetic Imaging). Twenty-five images from each of two duplicate slides were captured and analysed and the individual “comet moments” as defined by Olive et al^13, were calculated. The total fluorescence of the image represents the amount of DNA present and the length of the image, measured in pixels, represents the length of migration of the DNA. The head and tail areas of the image were identified and the intensity of each was determined. The tail moment is calculated by multiplying the fraction of DNA present in the tail by half the length of the tail.

Another test concerns mcp1 cell line. Put plainly: Growth inhibition assay (modified MTT). It counts as cell-based, human. The following applies: Table 1, first series of assays; mcp1; five-day MTT. The method, then: as §1, §2, §3, §4
Another test has as its system ccu24 cell line. The experiment in a line: Growth inhibition assay (modified MTT). It is filed as cell-based, human. The following applies: Table 1, first series of assays, five-day MTT. The method, then: as §1, §2, §3, §4
The next test has as its system ccu24/cpr cell line. The experiment in a line: Growth inhibition assay (modified MTT). It counts as cell-based, human. Particulars: Table 1, first series of assays, five-day MTT. The method, then: as §1, §2, §3, §4
The next test has as its system cor123 cell line. The experiment in a line: Growth inhibition assay (modified MTT). Particulars: Table 1, first series of assays, five-day MTT. It is filed as cell-based, human. The method, then: as §1, §2, §3, §4
The subject of the next test is A2780cis cell line. Put plainly: Growth inhibition assay (modified MTT). The following applies: Table 1, first series of assays; A2780cis; five-day MTT. It is filed as cell-based, human. The method, then: as §1, §2, §3, §4
The test system of another test is cor123/cpr cell line. The experiment in a line: Growth inhibition assay (modified MTT). It counts as cell-based, human. The following applies: Table 1, first series of assays, five-day MTT. The method, then: as §1, §2, §3, §4
For another test, the system named is A2780carb cell line. Put plainly: Growth inhibition assay (modified MTT). It counts as cell-based, human. Particulars: Table 1, first series of assays; A2780carb; five-day MTT. The method, then:
as §1, §2, §3, §4

For another test, the system named is mcp8 cell line. The experiment in a line: Growth inhibition assay (modified MTT). It is filed as cell-based, human. Particulars: Table 1, first series of assays; mcp8; five-day MTT. The method, then: as §1, §2, §3, §4
The next test relates to A2780-S cell line. The experiment in a line: Growth inhibition assay (modified MTT). It is filed as cell-based, human. The following applies: Table 1, first series of assays, five-day MTT. The method, then: as §1, §2, §3, §4
The subject of test [1] is parental and platinum-resistant cell lines. Put plainly: Comet assay, DNA cross-linking, summary of FIGS. 1-9. It counts as cell-based. The method, then:
as §5, §7, §8, §9, §10

The test system of a further test is cor123. Put plainly: Comet assay, DNA crosslinking. It counts as cell-based, human. Particulars: ratio >1 = more cross-linking in parental than in platinum-resistant line. The method, then:
as §5, §6, §7, §8, §9, §10

For the next test, the system named is A2780/mcp8. Put plainly: Comet assay, DNA crosslinking. The following applies: ratio >1 = more cross-linking in parental than in platinum-resistant line. It counts as cell-based, human. The method, then: as §5, §6, §7, §8, §9, §10
In another test the test system is A2780mcp1. Put plainly: Comet assay, DNA crosslinking. It is filed as cell-based, human. The following applies: ratio >1 = more cross-linking in parental than in platinum-resistant line. The method, then:
as §5, §6, §7, §8, §9, §10

A further test relates to ccu24. The experiment in a line: Comet assay, DNA crosslinking. It counts as cell-based, human. Particulars: ratio >1 = more cross-linking in parental than in platinum-resistant line. The method, then:
as §5, §6, §7, §8, §9, §10

A further test deals with A2780cis. The experiment in a line: Comet assay, DNA crosslinking. It counts as cell-based, human. Particulars: ratio >1 = more cross-linking in parental than in platinum-resistant line. The method, then: as §5, §6, §7, §8, §9, §10
The test system of another test is eleven cell lines. The experiment in a line: Growth inhibition assay (modified MTT), summary over cell lines. Particulars: text reference to Table 1; cell line not stated. It is filed as cell-based, mouse and human. The method, then: as §1
as §2, with “subline. […]” for “subline.”
Compounds under investigation were dissolved in DMSO (dimethylsulphoxide). […] The plates were read using a Multiskan platereader at 540 nm and 690 nm. Growth inhibition curves were constructed using mean and standard deviation of the triplicate absorbance values and from these curves the IC50 values were calculated.

For a further test, the system named is A2780carb. Put plainly: Comet assay, DNA crosslinking. It counts as cell-based, human. The following applies: ratio >1 = more cross-linking in parental than in platinum-resistant line. The method, then: as §5, §6, §7, §8, §9, §10

As a reminder, the IC50 is the concentration that gives 50% inhibition. As for `N.N.[Cl][Pt][Cl]` [Cisplatin, cisplatin, reference compound], the IC50 in the test with L1210/M1140 cell line worked out at 44.9 µM; with L1210 cell line, 12.1 µM; with mcp1 cell line, 19.9 µM; with ccu24 cell line, 4.32 µM; in the test with ccu24/cpr cell line, 24.9 µM; with cor123 cell line it was 3.43 µM. Also, the half-inhibitory concentration (IC50) with A2780cis cell line is 30.5 µM; with cor123/cpr cell line, 26.7 µM; with A2780carb cell line, 27.6 µM; in the test with mcp8 cell line, 24.4 µM; with A2780-S cell line, 1320 nM. The “DNA crosslinking (Comet) ratio” value amounted to 3.37 in the test with L1210; 5.72 in the test with cor123; 5.70 with A2780/mcp8; 5.40 with A2780mcp1; 4.65 in the test with ccu24; 5.65 in the test with A2780cis. In addition, in test [1] (parental (platinum-sensitive) A2780, L1210 and cor123 cell lines, FIGS. 1 and 2), the “DNA cross-linking in parental cell lines” value is on record as “extensive DNA cross-linking”. In test [1] (platinum-resistant cell lines, FIGS. 1 and 2), the “DNA cross-linking in platinum-resistant cell lines” value is reported as “much less cross-linking”. Also, in test [1] (summary of Table 3), the “DNA crosslinking (Comet) ratio, all resistant cell lines” value is given as “a ratio greater than unity”.
As for `[Au+].[c-]1ccccc1.c1ccc([PH+](c2ccccc2)c2ccccc2)cc1` [PAuP, phenylgoldtriphenylphospine, reference compound], the “DNA crosslinking (Comet) ratio” value was 1.33 in the test with L1210; 0.75 with cor123; 1.33 in the test on A2780carb; 1.33 with A2780/mcp8; 1.33 with A2780mcp1; 1.00 with ccu24. In the test with A2780cis, the “DNA crosslinking (Comet) ratio” value came to 1.00. In addition, the figures for the concentration for half-maximal inhibition (IC50) in the test with A2780cis cell line and in the test on A2780-S cell line were greater than 10 µM and greater than 10000 nM, respectively. Besides, the “ID50 (cytotoxicity)” value in the test with eleven cell lines is greater than 10000 mu. Also, in test [1] (FIG. 9, compared to the di-gold compounds), the level of cross-linking result is recorded as “low compared to the di-gold compounds”.
